Positions count from the first letter of the chain named. “And” between values parts separate entries of the source, which are not always exact repeats. Equal values may be shown once.
How the values were obtained:
[1] = tested on: SGLT1 and SGLT2; conditions: cited from earlier work; for subtype specificity of inhibition (SGLT1 vs SGLT2): in words
[2] = tested on: nontransfected Expi293 cells (Mock); assay: Nonspecific binding to crude membrane of nontransfected cells (Mock); set-up: species or system human; conditions: Mock
Method: (§1) To examine the inhibition of binding to the crude membrane, mammalian Expi293 cells were co-transfected with the hMAP17 and hSGLT2 plasmids, as described. The cells were collected and disrupted by sonication in a hypotonic buffer (50 mM HEPES–NaOH (pH 7.5), 10 mM KCl and protease inhibitor cocktail) or Na^+-free hypotonic buffer (50 mM Tris–HCl (pH 7.5), 10 mM KCl and protease inhibitor cocktail). The cell debris were removed by centrifugation (2,000g, 5 min, 4 °C). The membrane fraction was collected by ultracentrifugation (112,000g, 30 min, 4 °C) and stored at −80 °C before use. The crude membrane (250 μg per sample) was incubated with SGLT2 inhibitor in an assay buffer (100 mM NaCl and 10 mM HEPES/Tris, pH 7.4) or Na^+-free assay buffer (100 mM choline chloride and 10 mM HEPES/Tris, pH 7.4) at room temperature for 2 h. Reactions were terminated by filtration through a GF/C filter plate (Corning) presoaked in assay buffer containing 0.1% bovine serum albumin. The sample in the filter plate was washed three times with the assay buffer and eluted with acetonitrile: water (80:20, v/v). The extract solution from the filter plate was diluted with water containing candesartan as an internal standard, and the SGLT2 inhibitor concentration was quantified via LC–MS/MS.
(§2) Nonspecific binding was measured using the crude membrane of nontransfected Expi293 cells. Specific binding was calculated by subtracting nonspecific binding from the binding of hSGLT2-expressing cells. Specific binding was normalized to hSGLT2 protein expression levels, measured via FSEC. The equilibrium dissociation constant (Kd) and maximum number of binding sites (Bmax) were calculated via nonlinear regression in GraphPad Prism 8.4.3. The specific binding of the hSGLT2 mutants was normalized to the Bmax of WT hSGLT2.
(§3) The concentrations of the extract solution from the filter plate and of the cell lysate were quantified using a tandem mass spectrometry QTRAP6500 System (SCIEX) coupled with an ACQUITY UPLC system (Waters) using the internal standard method. Mobile phases A and B used 10 mM of ammonium bicarbonate and acetonitrile, respectively.

[3] = molecular target: T1, wild-type hSGLT2 (membrane fraction of hSGLT2 and MAP17 expressing cells) (Homo sapiens, UniProt P31639); assay: SGLT2 inhibitor-binding assay via affinity selection–mass spectrometry, crude membrane, WT
T1 construct: expressed in transfected cells; host or cells: Expi293 cells, crude membrane fraction
T1 sequence (P31639 1-672): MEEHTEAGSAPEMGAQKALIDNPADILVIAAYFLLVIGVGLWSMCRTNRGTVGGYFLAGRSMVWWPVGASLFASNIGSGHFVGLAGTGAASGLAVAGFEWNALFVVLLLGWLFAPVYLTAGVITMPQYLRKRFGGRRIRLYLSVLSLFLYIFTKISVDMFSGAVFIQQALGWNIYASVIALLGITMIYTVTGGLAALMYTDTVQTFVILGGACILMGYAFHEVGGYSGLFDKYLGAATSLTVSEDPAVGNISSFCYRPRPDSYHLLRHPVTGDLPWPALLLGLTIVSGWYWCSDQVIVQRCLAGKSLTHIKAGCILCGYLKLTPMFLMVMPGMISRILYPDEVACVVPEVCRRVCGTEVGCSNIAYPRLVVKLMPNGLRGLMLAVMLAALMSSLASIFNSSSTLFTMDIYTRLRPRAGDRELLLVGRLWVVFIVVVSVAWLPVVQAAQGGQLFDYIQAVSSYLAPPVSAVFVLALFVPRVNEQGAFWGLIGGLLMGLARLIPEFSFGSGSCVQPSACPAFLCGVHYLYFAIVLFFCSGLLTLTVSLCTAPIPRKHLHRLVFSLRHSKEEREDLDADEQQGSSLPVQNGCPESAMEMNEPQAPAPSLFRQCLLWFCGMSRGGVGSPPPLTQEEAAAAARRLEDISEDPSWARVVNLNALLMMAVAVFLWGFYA
T1 sequence (Q13113 1-114 partner): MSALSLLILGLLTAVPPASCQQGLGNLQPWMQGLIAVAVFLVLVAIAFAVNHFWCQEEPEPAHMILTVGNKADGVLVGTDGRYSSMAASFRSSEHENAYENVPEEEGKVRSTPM
Method: as §1, §2, §3

[4] = molecular target: T2, hSGLT2 D201A (Homo sapiens, UniProt P31639, D201A); assay: SGLT2 inhibitor-binding assay (AS-MS), crude membrane, D201A mutant; set-up: expressed in transfected cells; host or cells: Expi293 cells, crude membrane fraction; conditions: D201A mutant
T2 sequence (P31639 1-672 D201A): T1 sequence (P31639 1-672) with D201A
T2 sequence (Q13113 1-114 partner): T1 sequence (Q13113 1-114 partner)
Text: (§4) hSGLT2 complementary DNA and human MAP17 cDNA were synthesized and codon-optimized for expression in human cell lines. Both cDNAs were cloned into the pcDNA3.4 vector. The hSGLT2 sequence was fused with an N-terminal signal sequence from human trypsinogen 1, a His10 tag, and sfGFP, followed by a human rhinovirus 3C protease (HRV3C protease) recognition site. Point mutations were introduced into this construct using site-directed mutagenesis. These plasmids were utilized for all experimental procedures conducted in this study.
To examine the inhibition of binding to the crude membrane, mammalian Expi293 cells were co-transfected with the hMAP17 and hSGLT2 plasmids, as described. […] The extract solution from the filter plate was diluted with water containing candesartan as an internal standard, and the SGLT2 inhibitor concentration was quantified via LC–MS/MS.
as §2, with “The specific binding of the hSGLT2 mutants was normalized to the Bmax of WT hSGLT2.” left out

[5] = molecular target: T3, hSGLT2 S74A (Homo sapiens, UniProt P31639, S74A); type: binding; conditions: S74A mutant
T3 construct: expressed in transfected cells; host or cells: Expi293 cells, crude membrane fraction
T3 sequence (P31639 whole entry S74A, one chain of several): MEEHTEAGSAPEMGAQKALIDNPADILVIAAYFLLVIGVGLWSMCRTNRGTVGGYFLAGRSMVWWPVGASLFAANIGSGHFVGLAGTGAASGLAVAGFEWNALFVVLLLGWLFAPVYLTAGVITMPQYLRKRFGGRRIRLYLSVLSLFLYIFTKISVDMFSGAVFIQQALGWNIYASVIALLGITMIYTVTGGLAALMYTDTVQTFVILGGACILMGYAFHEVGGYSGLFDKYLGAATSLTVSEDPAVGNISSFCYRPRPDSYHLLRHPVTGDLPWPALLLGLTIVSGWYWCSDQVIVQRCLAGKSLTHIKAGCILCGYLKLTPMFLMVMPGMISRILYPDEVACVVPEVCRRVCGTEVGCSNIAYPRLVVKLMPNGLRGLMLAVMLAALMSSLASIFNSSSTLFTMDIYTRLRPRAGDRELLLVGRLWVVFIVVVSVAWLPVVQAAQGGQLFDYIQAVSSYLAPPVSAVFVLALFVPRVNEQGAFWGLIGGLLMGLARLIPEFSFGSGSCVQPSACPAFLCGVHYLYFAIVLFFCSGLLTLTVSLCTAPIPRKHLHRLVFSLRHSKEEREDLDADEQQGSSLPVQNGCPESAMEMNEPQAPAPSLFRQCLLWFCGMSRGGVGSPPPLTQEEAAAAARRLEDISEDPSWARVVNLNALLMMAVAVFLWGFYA
Text: as §4
To examine the inhibition of binding to the crude membrane, mammalian Expi293 cells were co-transfected with the hMAP17 and hSGLT2 plasmids, as described. The cells were collected and disrupted by sonication in a hypotonic buffer (50 mM HEPES–NaOH (pH 7.5), 10 mM KCl and protease inhibitor cocktail) or Na^+-free hypotonic buffer (50 mM Tris–HCl (pH 7.5), 10 mM KCl and protease inhibitor cocktail). The cell debris were removed by centrifugation (2,000g, 5 min, 4 °C). The membrane fraction was collected by ultracentrifugation (112,000g, 30 min, 4 °C) and stored at −80 °C before use. […] The extract solution from the filter plate was diluted with water containing candesartan as an internal standard, and the SGLT2 inhibitor concentration was quantified via LC–MS/MS.
as §2, with “The specific binding of the hSGLT2 mutants was normalized to the Bmax of WT hSGLT2.” left out
The concentrations of the extract solution from the filter plate and of the cell lysate were quantified using a tandem mass spectrometry QTRAP6500 System (SCIEX) coupled with an ACQUITY UPLC system (Waters) using the internal standard method. […]

[6] = tested on: hSGLT2 V95I; set-up: method as in PMID 34880493; conditions: cited from earlier work
[7] = tested on: SGLT2; set-up: method as in Hummel et al., Am. J. Physiol., Cell Physiol., 2011; conditions: authors' rebuttal in peer review file; ref Hummel et al., Am. J. Physiol., Cell Physiol., 2011; cited from earlier work
[8] = tested on: SGLT1 T395A; set-up: method as in PMID 30532032; conditions: replacement of T395 with Ala at the Na3 site; cited from earlier work

CCOc1ccc(Cc2cc([C@@H]3O[C@H](CO)[C@@H](O)[C@H](O)[C@H]3O)ccc2Cl)cc1 [Dapagliflozin]
fold difference in inhibition between SGLT1 and SGLT2 [1]: more than 1,000 fold | subtype specificity of inhibition (SGLT1 vs SGLT2) [1]: SGLT2-specific inhibition | Binding (% of hSGLT2) ([2]; 10 nM dapagliflozin): 2.53 % of hSGLT2 and 3.518 % of hSGLT2 and 3.481 % of hSGLT2 | Binding (% of hSGLT2) ([3]; 10 nM dapagliflozin): 83.4507 % of hSGLT2 and 95.0704 % of hSGLT2 and 121.479 % of hSGLT2

CS[C@H]1O[C@@H](c2ccc(C)c(Cc3ccc(CCCC(=O)NC(C)(C)C(=O)NCCN(C)C)cc3)c2)[C@H](O)[C@@H](O)[C@@H]1O [LX-2761]
subtype specificity of inhibition (SGLT1 vs SGLT2) [1]: dual inhibitors

O=C(CCc1ccc(O)cc1)c1c(O)cc(O)cc1O [Phloretin]
phloretin binding (in words) [4]: not | phloretin binding (in words) [5]: not | phloretin binding (in words) ([3]; WT): binds as effectively as phlorizin | Bmax ([3]; phloretin, WT, mean ± SEM n=4): 51.7 ± 3.46 pmol/mg-protein | Kd ([3]; phloretin, WT, mean ± SEM n=4): 12000 ± 1900 nM

CCOc1ccc(Cc2cc([C@@H]3O[C@H](SC)[C@@H](O)[C@H](O)[C@H]3O)ccc2Cl)cc1 [Sotagliflozin]
subtype specificity of inhibition (SGLT1 vs SGLT2) [1]: dual inhibitors | Binding (% of hSGLT2) ([2]; 50 nM sotagliflozin): 19.1195 % of hSGLT2 and 17.8616 % of hSGLT2 and 17.9874 % of hSGLT2 | Binding (% of hSGLT2) ([3]; 50 nM sotagliflozin): 96.1006 % of hSGLT2 and 97.9874 % of hSGLT2 and 105.912 % of hSGLT2

OC[C@H]1O[C@@H](n2cc(Cc3ccc(C4CC4)cc3)c3c(F)cccc32)[C@H](O)[C@@H](O)[C@@H]1O [TA-1887]
subtype specificity of inhibition (SGLT1 vs SGLT2) [1]: SGLT2-specific inhibition | Binding (% of hSGLT2) ([2]; 10 nM TA-1887): 13.0351 % of hSGLT2 and 13.9457 % of hSGLT2 and 14.6645 % of hSGLT2 | Binding (% of hSGLT2) ([3]; 10 nM TA-1887): 96.8051 % of hSGLT2 and 101.597 % of hSGLT2 | Bmax ([3]; Na(+), mean ± SEM n=3): 4.67 ± 0.49 pmol/mg-protein | Kd ([3]; Na(+), mean ± SEM n=3): 115 ± 28 nM | Bmax ([3]; Na(-), mean ± SEM n=3): 0.705 ± 0.155 pmol/mg-protein | Kd ([3]; Na(-), mean ± SEM n=3): 86.4 ± 50 nM | Bmax in the absence versus the presence of Na+ (in words) ([3]; absence vs presence of Na+): partially lower

OC[C@H]1O[C@@H](c2ccc(Cl)c(Cc3ccc(O[C@H]4CCOC4)cc3)c2)[C@H](O)[C@@H](O)[C@@H]1O [empagliflozin]
subtype specificity of inhibition (SGLT1 vs SGLT2) [1]: SGLT2-specific inhibition | effect of V95I on inhibitory activity [6]: reduces the inhibitory activity

OC[C@H]1OC(O)[C@H](O)[C@@H](O)[C@@H]1O (stereo partly shown) [glucose]
Michaelis constant [7]: 5 mM | reduction in glucose affinity [8]: more than 30 fold
